Test results as given in patent US20080139558A1, “QUINOLONES USEFUL AS INDUCIBLE NITRIC OXIDE SYNTHASE INHIBITORS” (KALYPSYS, INC., priority 2006, published 2008).
pEC50: −log10 of the molar value.

Target: T1, human iNOS (Homo sapiens, UniProt P35228)
T1 construct: expressed in transfected cells; host or cells: HEK293
Assay: DAN assay of nitric oxide production (hiNOS)
Type: cell-based
Conditions: enzyme expressed in HEK293 cells transiently transfected with human iNOS
Outline: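 Human iNOS transiently expressed in HEK293 cells; NO production quantified as nitrite via 2,3-diaminonaphthalene reaction forming fluorescent naphthotriazole.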

T1 sequence (P35228 whole entry): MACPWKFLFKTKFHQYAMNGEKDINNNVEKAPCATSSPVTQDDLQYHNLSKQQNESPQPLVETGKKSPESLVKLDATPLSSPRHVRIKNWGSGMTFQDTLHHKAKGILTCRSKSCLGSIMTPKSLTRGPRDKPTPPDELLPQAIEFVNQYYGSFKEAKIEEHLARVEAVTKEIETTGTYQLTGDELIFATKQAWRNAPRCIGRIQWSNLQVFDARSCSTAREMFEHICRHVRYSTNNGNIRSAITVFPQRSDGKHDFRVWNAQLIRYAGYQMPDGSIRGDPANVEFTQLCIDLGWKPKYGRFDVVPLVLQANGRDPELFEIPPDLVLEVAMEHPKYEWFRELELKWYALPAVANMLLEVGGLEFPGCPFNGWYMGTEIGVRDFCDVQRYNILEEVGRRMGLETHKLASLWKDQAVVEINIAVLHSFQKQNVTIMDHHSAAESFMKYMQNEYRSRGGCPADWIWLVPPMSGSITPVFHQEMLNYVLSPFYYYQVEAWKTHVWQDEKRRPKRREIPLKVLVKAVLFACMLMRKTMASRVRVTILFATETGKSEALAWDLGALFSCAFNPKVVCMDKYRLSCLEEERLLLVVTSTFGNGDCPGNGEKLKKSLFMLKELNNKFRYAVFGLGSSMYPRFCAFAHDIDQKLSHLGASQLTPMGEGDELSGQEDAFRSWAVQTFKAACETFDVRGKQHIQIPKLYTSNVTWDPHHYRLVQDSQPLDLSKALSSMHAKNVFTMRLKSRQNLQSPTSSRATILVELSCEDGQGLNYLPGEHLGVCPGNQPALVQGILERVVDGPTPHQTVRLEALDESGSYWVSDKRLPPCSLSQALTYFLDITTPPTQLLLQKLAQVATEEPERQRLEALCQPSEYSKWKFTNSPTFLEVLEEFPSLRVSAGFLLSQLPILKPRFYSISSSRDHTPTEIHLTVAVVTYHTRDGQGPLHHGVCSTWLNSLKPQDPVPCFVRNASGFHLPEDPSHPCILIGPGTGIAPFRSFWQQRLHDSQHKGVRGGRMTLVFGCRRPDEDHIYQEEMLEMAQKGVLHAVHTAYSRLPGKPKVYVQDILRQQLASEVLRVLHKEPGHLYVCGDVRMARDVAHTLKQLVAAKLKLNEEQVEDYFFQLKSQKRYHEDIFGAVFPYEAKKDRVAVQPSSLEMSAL

pEC50 | Compound
< 5.30 | Cc1ncsc1C(=O)N(Cc1cc(=O)n(C)c2c(F)cccc12)c1cccc(Cl)c1 [Example 117, N-(3-Chlorophenyl)-N-((8-fluoro-1-methyl-2-oxo-1,2-dihydroquinolin-4-yl)methyl)-4-methylthiazole-5-carboxamide]
< 5.30 | O=c1cc(Cn2c(-c3cccnc3)nc3ccccc32)c2ccccc2[nH]1 [Example 125, 4-((2-(Pyridin-3-yl)-1H-benzo[d]imidazol-1-yl)methyl)quinolin-2(1H)-one]
< 5.30 | Cc1ccc(C(=O)N(Cc2cc(=O)[nH]c3c(F)cccc23)c2cccc(Cl)c2)cc1 [Example 59, N-(3-Chlorophenyl)-N-((8-fluoro-2-oxo-1,2-dihydroquinolin-4-yl)methyl)-4-methylbenzamide]
< 5.30 | O=c1cc(Cn2c(C3CCNCC3)nc3ccccc32)c2ccc(F)c(F)c2[nH]1 [Example 212, 7,8-Difluoro-4-((2-(piperidin-4-yl)-1H-benzo[d]imidazol-1-yl)methyl)quinolin-2(1H)-one]
≥ 5.30 | O=C(c1ccco1)N(Cc1cc(=O)[nH]c2ccccc12)c1ccncc1 [Example 13, N-[(2-Oxo-1,2-dihydroquinolin-4-yl)methyl]-N-pyridin-4-yl-2-furamide]
< 5.30 | Cc1ncsc1C(=O)N(Cc1cc2cccc(F)c2[nH]c1=O)c1ccc(N2CCCCC2)cc1 [Example 174, N-((8-Fluoro-2-oxo-1,2-dihydroquinolin-3-yl)methyl)-4-methyl-N-(piperidin-1-yl)phenylthiazole-5-carboxamide]
≥ 5.30 | Cc1ncsc1C(=O)N(Cc1cc(=O)[nH]c2c(F)c(F)ccc12)c1cccc(C#N)c1 [Example 186, N-(3-Cyanophenyl)-N-((7,8-difluoro-2-oxo-1,2-dihydroquinolin-4-yl)methyl)-4-methylthiazole-5-carboxamide]
≥ 5.30 | Cc1ccncc1C(=O)N(Cc1c(F)c(=O)[nH]c2c(F)cccc12)c1cccc(Cl)c1 [Example 114, N-(3-Chlorophenyl)-N-((3,8-difluoro-2-oxo-1,2-dihydroquinolin-4-yl)methyl)-4-methylnicotinamide]
≥ 5.30 | Cc1ncsc1C(=O)N(Cc1cc(=O)[nH]c2c(F)c(F)ccc12)c1ccc(F)cc1 [Example 183, N-(4-Fluorolphenyl)-N-((7,8-fluoro-2-oxo-1,2-dihydroquinolin-4-yl)methyl)-4-methylthiazole-5-carboxamide]
≥ 5.30 | Cc1nc(-c2cccc(Cl)c2)n(Cc2cc(=O)[nH]c3c(F)c(F)ccc23)c1C [Example 257, 4-((2-(3-Chlorophenyl)-4,5-dimethyl-1H-imidazol-1-yl)methyl)-7,8-difluoroquinolin-2(1H)-one]
≥ 5.30 | Cc1ncsc1C(=O)N(Cc1cc(=O)[nH]c2c(F)cccc12)c1cccc(Cl)c1F [Example 187, N-(3-Chloro-2-fluorophenyl)-N-((8-fluoro-2-oxo-1,2-dihydroquinolin-4-yl)methyl)-4-methylthiazole-5-carboxamide]
< 5.30 | Cc1ncsc1C(=O)N(Cc1cc(=O)[nH]c2c(F)c(F)ccc12)C1CC1 [Example 86, N-Cyclopropyl-N-((7,8-fluoro-2-oxo-1,2-dihydroquinolin-4-yl)methyl)-4-methylthiazole-5-carboxamide]
≥ 5.30 | Cc1noc(C)c1-c1nc2ccccc2n1Cc1cc(=O)[nH]c2c(F)c(F)ccc12 [Example 232, 4-((2-(3,5-Dimethylisoxazol-4-yl)-1H-benzo[d]imidazol-1-yl)methyl)-7,8-difluoroquinolin-2(1H)-one]
< 5.30 | O=c1cc(Cn2c(N3CCOCC3)nc3ccccc32)c2ccc(F)c(F)c2[nH]1 [Example 200, 7,8-Difluoro-4-((2-morpholino-1H-benzo[d]imidazol-1-yl)methyl)quinolin-2(1H)-one]
≥ 5.30 | Cc1cccc2c1nc(C(C)C)n2Cc1cc(=O)[nH]c2c(F)c(F)ccc12 [Example 224, 7,8-Difluoro-4-((2-isopropyl-4-methyl-1H-benzo[d]imidazol-1-yl)methyl)quinolin-2(1H)-one]
< 5.30 | Cc1ccc2[nH]c(=O)c(CN(Cc3ccccc3)c3ccc(C#N)cn3)cc2c1 [Example 103, 6-(Benzyl((6-methyl-2-oxo-1,2-dihydroquinolin-3-yl)methyl)amino)nicotinonitrile]
< 5.30 | Cc1ncsc1C(=O)N(Cc1cc(=O)[nH]c2c(F)cccc12)c1cccc(Cl)c1 [Example 43, N-(3-Chlorophenyl)-N-((8-fluoro-2-oxo-1,2-dihydroquinolin-4-yl)methyl)-4-methylthiazole-5-carboxamide]
< 5.30 | Cc1cccc(C(=O)N(Cc2cc(=O)[nH]c3c(F)cccc23)c2cccc(Cl)c2)c1 [Example 58, N-(3-Chlorophenyl)-N-((8-fluoro-2-oxo-1,2-dihydroquinolin-4-yl)methyl)-3-methylbenzamide]
< 5.30 | O=c1cc(CN(c2cccc(Cl)c2)c2nccc3ccccc23)c2cccc(F)c2[nH]1 [Example 78, 4-(((3-Chlorophenyl)(isoquinolin-1-yl)amino)methyl)-8-fluoroquinolin-2(1H)-one]
≥ 5.30 | Cc1ncsc1-c1nc2ccccc2n1Cc1cc(=O)[nH]c2ccccc12 [Example 124, 4-((2-(4-Methylthiazol-5-yl)-1H-benzo[d]imidazol-1-yl)methyl)quinolin-2(1H)-one]

pEC50 | Compound
< 5.30 | Cc1nc2ccccc2n1Cc1cc(=O)[nH]c2c(F)c(F)ccc12 [Example 190, 7,8-Difluoro-4-((2-methyl-1H-benzo[d]imidazol-1-yl)methyl)quinolin-2(1H)-one]
≥ 5.30 | O=c1cc(Cn2c(-n3ccnc3)nc3ccccc32)c2ccc(F)c(F)c2[nH]1 [Example 218, 4-((2-(1H-Imidazol-1-yl)-1H-benzo[d]imidazol-1-yl)methyl)-7,8-difluoroquinolin-2(1H)-one]
< 5.30 | O=C(c1ccco1)N(Cc1cc(=O)[nH]c2ccccc12)c1ccc(Cl)cc1 [Example 2, N-(4-Chlorophenyl)-N-((2-oxo-1,2-dihydroquinolin-4-yl)methyl)furan-2-carboxamide]
≥ 5.30 | CN(Cc1cc(=O)[nH]c2ccccc12)c1ccccc1 [Example 15, 4-[(Methyl-phenyl-amino)-methyl]-1H-quinolin-2-one]
< 5.30 | CCC(=O)N(Cc1cc(=O)[nH]c2ccccc12)c1ccccc1 [Example 4, N-((2-Oxo-1,2-dihydroquinolin-4-yl)methyl)-N-phenylpropionamide]
≥ 5.30 | COc1ccc(N(Cc2cc(=O)[nH]c3c(F)c(F)ccc23)C(=O)c2scnc2C)cc1Cl [Example 176, N-(3-Chloro4-methoxylphenyl)-N-((7,8-fluoro-2-oxo-1,2-dihydroquinolin-4-yl)methyl)-4-methylthiazole-5-carboxamide]
< 5.30 | O=C(c1ccc(F)cc1)N(Cc1cc(=O)[nH]c2c(F)cccc12)c1cccc(Cl)c1 [Example 56, N-(3-Chlorophenyl)-4-fluoro-N-((8-fluoro-2-oxo-1,2-dihydroquinolin-4-yl)methyl)benzamide]
< 5.30 | Cc1oncc1C(=O)N(Cc1cc2cccc(F)c2[nH]c1=O)c1cccc(Cl)c1 [Example 173, N-(3-Chlorophenyl)-N-((8-fluoro-2-oxo-1,2-dihydroquinolin-3-yl)methyl)-5-methylisoxazole-4-carboxamide]
< 5.30 | Cc1c(-c2nc3ccccc3n2Cc2cc(=O)[nH]c3c(F)c(F)ccc23)ncn1C [Example 226, 4-((2-(1,5-Dimethyl-1H-imidazol-4-yl)-1H-benzo[d]imidazol-1-yl)methyl)-7,8-difluoroquinolin-2(1H)-one]
< 5.30 | O=C(c1ccccc1F)N(Cc1cc(=O)[nH]c2c(F)cccc12)c1cccc(Cl)c1 [Example 54, N-(3-Chlorophenyl)-2-fluoro-N-((8-fluoro-2-oxo-1,2-dihydroquinolin-4-yl)methyl)benzamide]
≥ 5.30 | O=c1cc(Cn2c(C3CCCC3)nc3ccccc32)c2ccc(F)c(F)c2[nH]1 [Example 209, 4-((2-Cyclopentyl-1H-benzo[d]imidazol-1-yl)methyl)-7,8-difluoroquinolin-2(1H)-one]
< 5.30 | COc1cccc(C(=O)N(Cc2cc(=O)[nH]c3c(F)cccc23)c2cccc(Cl)c2)c1 [Example 61, N-(3-Chlorophenyl)-N-((8-fluoro-2-oxo-1,2-dihydroquinolin-4-yl)methyl)-3-methoxybenzamide]
≥ 5.30 | CCC(C)Cc1nc2ccccc2n1Cc1cc(=O)[nH]c2c(F)c(F)ccc12 (racemic) [Example 220, 7,8-Difluoro-4-((2-(2-methylbutyl)-1H-benzo[d]imidazol-1-yl)methyl)quinolin-2(1H)-one]
≥ 5.30 | Cc1ncsc1C(=O)N(Cc1cc(=O)[nH]c2c(F)cccc12)c1ccc(F)c(F)c1 [Example 92, N-(3,4-Difluorophenyl)-N-((8-fluoro-2-oxo-1,2-dihydroquinolin-4-yl)methyl)-4-methylthiazole-5-carboxamide]
≥ 5.30 | O=C(c1ccco1)N(Cc1cc(=O)[nH]c2ccccc12)c1ccccc1 [Example 1, N-((2-Oxo-1,2-dihydroquinolin-4-yl)methyl)-N-phenylfuran-2-carboxamide]
< 5.30 | O=C(c1cnccn1)N(Cc1cc(=O)[nH]c2c(F)cccc12)c1cccc(Cl)c1 [Example 70, N-(3-Chlorophenyl)-N-((8-fluoro-2-oxo-1,2-dihydroquinolin-4-yl)methyl)pyrazine-2-carboxamide]
≥ 5.30 | Cn1nnc(C(=O)N(Cc2cc(=O)[nH]c3c(F)c(F)ccc23)c2cccc(Cl)c2)n1 [Example 169]
≥ 5.30 | Cc1ccncc1C(=O)N(Cc1c(F)c(=O)[nH]c2c(F)c(F)ccc12)c1cccc(Cl)c1 [Example 116, N-(3-Chlorophenyl)-4-methyl-N-((3,7,8-trifluoro-2-oxo-1,2-dihydroquinolin-4-yl)methyl)nicotinamide]
< 5.30 | O=c1cc(Cn2c(Cn3ccnc3)nc3ccccc32)c2ccc(F)c(F)c2[nH]1 [Example 251, 4-((2-((1H-Imidazol-1-yl)methyl)-1H-benzo[d]imidazol-1-yl)methyl)-7,8-difluoroquinolin-2(1H)-one]
